# Measured values: US11331299B2, “Medicinal use of serrulatane diterpenes” (The University of Sydney, priority 2016, dated 2022)
# Where two headings read alike, the source gives them in different places.
# Test system: 280 human cancer cell lines
# Assay: OncoPanel cell proliferation assay (10-day)
# Assay type: cell-based
# Settings: Homo sapiens; for EC50: read-out: Cell Count EC50; for GI50: read-out: Cell Count GI50; for IC50: read-out: Cell Count IC50
# [1] = Caov-3, CaOV3, Female GU - Ovary
# [2] = ChaGo-K-1, ChaGoK1, Lung - NSCLC
# [3] = D341 Med, CNS - Medulloblastoma
# [4] = Detroit 562, Detroit 562, Head and Neck
# [5] = DoTc2-4510, DoTc2 4510, Lymphoma
# [6] = G292, G-292, clone A141B1, Soft Tissue - Osteosarcoma
# [7] = HEL 92.1.7, HEL-92-1-7, Leukemia
# [8] = HOS, Soft Tissue - Osteosarcoma
# [9] = HT-1080, HT-1080, Soft Tissue - Sarcoma
# [10] = HUH-6-clone5, HUH-6 Clone 5, Liver
# [11] = Hs 821.T, Soft Tissue - Sarcoma
# [12] = Hs 888.Sk, Soft Tissue - Osteosarcoma
structure (smiles),measurement,setting,value
"CC(C)=CCC[C@@H]1C(O)Oc2c(C)cc(O)c3c2[C@H]1CC[C@H]3C (stereo partly shown) [Compound 2, 5,18-epoxyserrulat-14-en-8,18-diol]",EC50,[1],10.2 µM
same,GI50,[1],9.61 µM
same,IC50,[1],10.2 µM
same,EC50,"Capan-2, Capan-2, Pancreas",8.64 µM
same,GI50,"Capan-2, Capan-2, Pancreas",8.48 µM
same,IC50,"Capan-2, Capan-2, Pancreas",8.64 µM
same,EC50,[2],8.32 µM
same,GI50,[2],8.26 µM
same,IC50,[2],8.32 µM
same,EC50,[3],19.2 µM
same,GI50,[3],18.7 µM
same,IC50,[3],19.2 µM
same,EC50,"DB, Lymphoma",3.23 µM
same,GI50,"DB, Lymphoma",3.24 µM
same,IC50,"DB, Lymphoma",3.25 µM
same,EC50,"DBTRG-05MG, CNS - Glioma",12.2 µM
same,GI50,"DBTRG-05MG, CNS - Glioma",12.8 µM
same,IC50,"DBTRG-05MG, CNS - Glioma",13 µM
same,EC50,"DK-MG, CNS - Glioma",1.64 µM
same,GI50,"DK-MG, CNS - Glioma",> 30 µM
same,IC50,"DK-MG, CNS - Glioma",> 30 µM
same,EC50,"DLD-1, DLD-1, Colon",10.7 µM
same,GI50,"DLD-1, DLD-1, Colon",11.2 µM
same,IC50,"DLD-1, DLD-1, Colon",11.2 µM
same,EC50,"DMS-53, DMS53, Lung - SCLC",5.91 µM
same,GI50,"DMS-53, DMS53, Lung - SCLC",5.75 µM
same,IC50,"DMS-53, DMS53, Lung - SCLC",5.95 µM
same,EC50,"DMS-114, DMS114, Lung - SCLC",11.5 µM
same,GI50,"DMS-114, DMS114, Lung - SCLC",13.1 µM
same,IC50,"DMS-114, DMS114, Lung - SCLC",13.8 µM
same,EC50,"DOHH-2, DOHH-2, Lymphoma",3.24 µM
same,GI50,"DOHH-2, DOHH-2, Lymphoma",3.24 µM
same,IC50,"DOHH-2, DOHH-2, Lymphoma",3.24 µM
same,EC50,"DU-145, DU145, Prostate",21 µM
same,GI50,"DU-145, DU145, Prostate",20.7 µM
same,IC50,"DU-145, DU145, Prostate",21 µM
same,EC50,"Daoy, CNS - Medulloblastoma",8.64 µM
same,GI50,"Daoy, CNS - Medulloblastoma",8.64 µM
same,IC50,"Daoy, CNS - Medulloblastoma",8.65 µM
same,EC50,"Daudi, Lymphoma",3.93 µM
same,GI50,"Daudi, Lymphoma",3.92 µM
same,IC50,"Daudi, Lymphoma",3.93 µM
same,EC50,[4],14.5 µM
same,GI50,[4],14.4 µM
same,IC50,[4],14.5 µM
same,EC50,[5],6.07 µM
same,GI50,[5],5.84 µM
same,IC50,[5],6.07 µM
same,EC50,"EB2, Lymphoma",23.3 µM
same,GI50,"EB2, Lymphoma",23 µM
same,IC50,"EB2, Lymphoma",23.3 µM
same,EC50,"EB-3, Lymphoma",9.72 µM
same,GI50,"EB-3, Lymphoma",9.71 µM
same,IC50,"EB-3, Lymphoma",9.72 µM
same,EC50,"EFM-19, EFM-19, Breast",11.2 µM
same,GI50,"EFM-19, EFM-19, Breast",10.6 µM
same,IC50,"EFM-19, EFM-19, Breast",11.2 µM
same,EC50,"EM-2, Leukemia",10.8 µM
same,GI50,"EM-2, Leukemia",10.8 µM
same,IC50,"EM-2, Leukemia",10.8 µM
same,EC50,"FaDu, Head and Neck",8.66 µM
same,GI50,"FaDu, Head and Neck",8.66 µM
same,IC50,"FaDu, Head and Neck",8.66 µM
same,EC50,[6],8.8 µM
same,GI50,[6],8.57 µM
same,IC50,[6],8.8 µM
same,EC50,"G-361, G-361, Skin (Melanoma)",11.7 µM
same,GI50,"G-361, G-361, Skin (Melanoma)",11.8 µM
same,IC50,"G-361, G-361, Skin (Melanoma)",11.8 µM
same,EC50,"G-401, G-401, Kidney",26 µM
same,GI50,"G-401, G-401, Kidney",26.2 µM
same,IC50,"G-401, G-401, Kidney",26.2 µM
same,EC50,"GA-10, GA-10, Lymphoma",3.72 µM
same,GI50,"GA-10, GA-10, Lymphoma",3.73 µM
same,IC50,"GA-10, GA-10, Lymphoma",3.73 µM
same,EC50,"H4, CNS - Glioma",3.06 µM
same,GI50,"H4, CNS - Glioma",> 30 µM
same,IC50,"H4, CNS - Glioma",> 30 µM
same,EC50,"HCT-15, HCT-15, Colon",8.64 µM
same,GI50,"HCT-15, HCT-15, Colon",9.48 µM
same,IC50,"HCT-15, HCT-15, Colon",9.49 µM
same,EC50,"HCT-116, HCT-116, Colon",6.68 µM
same,GI50,"HCT-116, HCT-116, Colon",6.67 µM
same,IC50,"HCT-116, HCT-116, Colon",6.68 µM
same,EC50,"HEC-1-A, Female GU - Uterus",12.1 µM
same,GI50,"HEC-1-A, Female GU - Uterus",12 µM
same,IC50,"HEC-1-A, Female GU - Uterus",12.1 µM
same,EC50,[7],13.4 µM
same,GI50,[7],13.4 µM
same,IC50,[7],13.4 µM
same,EC50,"HLE, Liver",10 µM
same,GI50,"HLE, Liver",16 µM
same,IC50,"HLE, Liver",16.4 µM
same,EC50,"HLF, Liver",13.7 µM
same,GI50,"HLF, Liver",15.6 µM
same,IC50,"HLF, Liver",15.7 µM
same,EC50,"HMCB, Skin (Melanoma)",6.68 µM
same,GI50,"HMCB, Skin (Melanoma)",6.57 µM
same,IC50,"HMCB, Skin (Melanoma)",6.68 µM
same,EC50,[8],4.82 µM
same,GI50,[8],4.81 µM
same,IC50,[8],4.82 µM
same,EC50,"HPAF-II, Pancreas",9.46 µM
same,GI50,"HPAF-II, Pancreas",9.6 µM
same,IC50,"HPAF-II, Pancreas",9.62 µM
same,EC50,"HT1197, HT-1197, Bladder",10.7 µM
same,GI50,"HT1197, HT-1197, Bladder",10.3 µM
same,IC50,"HT1197, HT-1197, Bladder",10.7 µM
same,EC50,"HT, Lymphoma",6.51 µM
same,GI50,"HT, Lymphoma",6.43 µM
same,IC50,"HT, Lymphoma",6.51 µM
same,EC50,"HT-3, Female GU - Cervix",17.6 µM
same,GI50,"HT-3, Female GU - Cervix",18.6 µM
same,IC50,"HT-3, Female GU - Cervix",19.3 µM
same,EC50,"HT-29, HT-29, Colon",19.5 µM
same,GI50,"HT-29, HT-29, Colon",19.4 µM
same,IC50,"HT-29, HT-29, Colon",19.5 µM
same,EC50,[9],3.31 µM
same,GI50,[9],3.3 µM
same,IC50,[9],3.31 µM
same,EC50,"HT-1376, HT1376, Bladder",4.71 µM
same,GI50,"HT-1376, HT1376, Bladder",4.47 µM
same,IC50,"HT-1376, HT1376, Bladder",4.71 µM
same,EC50,[10],15.5 µM
same,GI50,[10],15.3 µM
same,IC50,[10],15.5 µM
same,EC50,"HeLa, Female GU - Cervix",16.6 µM
same,GI50,"HeLa, Female GU - Cervix",16.5 µM
same,IC50,"HeLa, Female GU - Cervix",16.6 µM
same,EC50,"HepG2, HepG2, Liver",6.74 µM
same,GI50,"HepG2, HepG2, Liver",6.86 µM
same,IC50,"HepG2, HepG2, Liver",6.95 µM
same,EC50,"Hs 229.T, Lung - NSCLC",29.3 µM
same,GI50,"Hs 229.T, Lung - NSCLC",28.6 µM
same,IC50,"Hs 229.T, Lung - NSCLC",29.8 µM
same,EC50,"Hs 294T, Skin (Melanoma)",7.01 µM
same,GI50,"Hs 294T, Skin (Melanoma)",6.72 µM
same,IC50,"Hs 294T, Skin (Melanoma)",7.01 µM
same,EC50,"Hs 445, Hs 445, Lymphoma",4.34 µM
same,GI50,"Hs 445, Hs 445, Lymphoma",4.23 µM
same,IC50,"Hs 445, Hs 445, Lymphoma",4.34 µM
same,EC50,"Hs 611.T, Lymphoma",10.7 µM
same,GI50,"Hs 611.T, Lymphoma",10.6 µM
same,IC50,"Hs 611.T, Lymphoma",10.7 µM
same,EC50,"Hs 683, Hs 683, CNS - Glioma",29.8 µM
same,GI50,"Hs 683, Hs 683, CNS - Glioma",28.3 µM
same,IC50,"Hs 683, Hs 683, CNS - Glioma",29.8 µM
same,EC50,"Hs 688(A).T, Skin (Melanoma)",11.6 µM
same,GI50,"Hs 688(A).T, Skin (Melanoma)",12.2 µM
same,IC50,"Hs 688(A).T, Skin (Melanoma)",13.2 µM
same,EC50,"Hs746T, HS 746T, Stomach",> 30 µM
same,GI50,"Hs746T, HS 746T, Stomach",> 30 µM
same,IC50,"Hs746T, HS 746T, Stomach",> 30 µM
same,EC50,"Hs766T, Hs 766T, Pancreas",28.4 µM
same,GI50,"Hs766T, Hs 766T, Pancreas",26.2 µM
same,IC50,"Hs766T, Hs 766T, Pancreas",28.4 µM
same,EC50,[11],> 30 µM
same,GI50,[11],13.9 µM
same,IC50,[11],> 30 µM
same,EC50,[12],28.3 µM
same,GI50,[12],27.9 µM
same,IC50,[12],28.5 µM
same,EC50,"Hs 934.T, Skin (Melanoma)",> 30 µM
same,GI50,"Hs 934.T, Skin (Melanoma)",24.1 µM
same,IC50,"Hs 934.T, Skin (Melanoma)",> 30 µM
same,EC50,"Hs 936.T(C1), Skin (Melanoma)",3.62 µM
same,GI50,"Hs 936.T(C1), Skin (Melanoma)",3.74 µM
same,IC50,"Hs 936.T(C1), Skin (Melanoma)",3.76 µM
same,EC50,"Hs-578T, Hs 578T, Breast",28.7 µM
same,GI50,"Hs-578T, Hs 578T, Breast",28.2 µM
same,IC50,"Hs-578T, Hs 578T, Breast",28.7 µM
same,EC50,"HuCCT-1, HuCCT1, Liver",22.6 µM
same,GI50,"HuCCT-1, HuCCT1, Liver",22.6 µM
same,IC50,"HuCCT-1, HuCCT1, Liver",22.6 µM
same,EC50,"HuP-T4, HuP-T4, Pancreas",> 30 µM
same,GI50,"HuP-T4, HuP-T4, Pancreas",> 30 µM
same,IC50,"HuP-T4, HuP-T4, Pancreas",> 30 µM
same,EC50,"J82, Bladder",12.9 µM
same,GI50,"J82, Bladder",12.7 µM
same,IC50,"J82, Bladder",12.9 µM
same,EC50,"JAR, Placenta",> 30 µM
same,GI50,"JAR, Placenta",> 30 µM
same,IC50,"JAR, Placenta",> 30 µM
same,EC50,"JEG-3, JEG-3, Placenta",> 30 µM
same,GI50,"JEG-3, JEG-3, Placenta",> 30 µM
same,IC50,"JEG-3, JEG-3, Placenta",> 30 µM
same,EC50,"JIYOYE, Lymphoma",17.8 µM
same,GI50,"JIYOYE, Lymphoma",17.7 µM
same,IC50,"JIYOYE, Lymphoma",17.8 µM
same,EC50,"JeKo-1, JeKo-1, Lymphoma",4.48 µM
same,GI50,"JeKo-1, JeKo-1, Lymphoma",4.47 µM
same,IC50,"JeKo-1, JeKo-1, Lymphoma",4.48 µM
same,EC50,"Jurkat, Leukemia",2.66 µM
same,GI50,"Jurkat, Leukemia",2.65 µM
same,IC50,"Jurkat, Leukemia",2.66 µM
same,EC50,"K562, K562, Leukemia",10.2 µM
same,GI50,"K562, K562, Leukemia",10.1 µM
same,IC50,"K562, K562, Leukemia",10.2 µM
same,EC50,"KATO III, Stomach",8.98 µM
same,GI50,"KATO III, Stomach",16.6 µM
same,IC50,"KATO III, Stomach",16.8 µM
same,EC50,"KHOS-240S, Soft Tissue - Osteosarcoma",4.59 µM
